# Test system: TCRS containing NIH-3T3 fibroblasts cells
# Experiment: Detection of cellular translational control activities by TCRS reporter in drug-treated cells
# Type: cell-based
# Conditions: TCRS containing NIH-3T3 fibroblasts treated with drug
# Text: TCRS functions in cell lines. To examine the applicability of the TCRS in vertebrate cells we introduced the improved TCRS-vector into fibroblasts by transient transfection. […] Importantly, removal of the regulatory uORF by […] point mutation of its translation initiation site results in loss of translational controlled SR protein expression. Accordingly, the TCRS can be used to screen for drugs or to monitor pharmacological effects in tissue culture.
# To examine the potential of the TCRS for detection of changes in translation control activities by external supplied drugs, we treated the TCRS containing NIH-3T3 fibroblasts cells with aminopurine and rapamycin, respectively.
# Treatment with translational active drugs, such as rapamycin or aminopurine, result in differential activation of distinct translation control pathways, causing a shift in reporter protein expression. Shift in reporter expression was also observed with co-transfected expression vectors encoding eucaryotic translation initiation factors eIF2or eIF4E, or mutants thereof. Reporter protein expression shifts were dependent on an intact uORF.
substance,measurement,value
aminopurine,changes of the reporter peptide levels (PR and SR reporter protein expression from TCRS),Differential changes of the peptide levels were observed
